{
  "source": "ChEMBL document CHEMBL6134843",
  "about": "“HDAC11 Inhibition as a Potential Therapeutic Strategy for AML: Target Identification, Lead Discovery, Antitumor Potency, and Mechanism Investigation” (J Med Chem, 2025)",
  "key": {"OCI-AML2 [1]": {"tested_on": "OCI-AML2", "assay": "Induction of ferroptosis in human OCI-AML2 cells assessed as increase in lipid peroxidation level incubated for 48 hrs by C11-BODIPY 581/591 staining based flow cytometry analysis", "format": "functional, cell-based", "details": "dose 2.5-10 µM"}, "[2]": {"tested_on": "Acute myeloid leukemic cell", "assay": "Induction of ferroptosis in human Acute myeloid leukemic cells assessed as upregulation of HMOX1 protein level at 2.5 to 10 uM by Western blot analysis", "format": "functional, cell-based", "details": "dose 2.5-10 µM"}, "U-937 [3]": {"tested_on": "U-937", "assay": "Induction of cell differentiation in human U-937 cells assessed as increase in CD11b expression at 5 uM incubated for 48 hrs by flow cytometry analysis", "format": "functional, cell-based"}, "U-937 [4]": {"tested_on": "U-937", "assay": "Induction of ferroptosis in human U-937 cells assessed as increase in cellular ROS accumulation at 10 uM in presence of Zinc protoporphyrin by flow cytometry analysis", "format": "functional, cell-based"}, "U-937 [5]": {"tested_on": "U-937", "assay": "Induction of ferroptosis in human U-937 cells assessed as increase in malondialdehyde level at 5 uM incubated for 48 hrs in presence of ferrostatin-1", "format": "functional, cell-based"}, "[6]": {"assay": "Cytotoxicity against HEK293T cells assessed as cell viability incubated for 2 days by CCK-8 assay", "format": "toxicity, cell-based, HEK-293T", "details": "human"}, "[7]": {"assay": "Bioavailability in ICR(CD-1) mouse at 50 mg/kg, ip treated up to 24 hrs by LC-MS/MS analysis", "format": "ADME, organism-based", "details": "in vivo"}, "OCI-AML2 [8]": {"tested_on": "OCI-AML2", "assay": "Induction of ferroptosis in human OCI-AML2 cells assessed as increase in lipid peroxidation accumulation at 5 uM incubated for 48 hrs in presence of ferrostatin-1 by C11-BODIPY 581/591 staining based flow cytometry analysis", "format": "functional, cell-based"}, "U-937 [9]": {"tested_on": "U-937", "assay": "Antiproliferative activity in human U-937 cells assessed as suppression of cell growth at 10 uM in presence of Zinc protoporphyrin by trypan blue staining based analysis", "format": "functional"}, "OCI-AML2 [10]": {"tested_on": "OCI-AML2", "assay": "Induction of ferroptosis in human OCI-AML2 cells assessed as increase in cellular ROS level incubated for 48 hrs by DCFH-DA staining based flow cytometry analysis", "format": "functional, cell-based", "details": "dose 2.5-10 µM"}, "OCI-AML2 [11]": {"tested_on": "OCI-AML2", "assay": "Induction of cell cycle arrest in human OCI-AML2 cells assessed as accumulation of cells at G1 phase at 5 uM incubated for 48 hrs by EdU/DAPI staining based flow cytometry analysis", "format": "functional"}, "OCI-AML2 [12]": {"tested_on": "OCI-AML2", "assay": "Induction of ferroptosis in human OCI-AML2 cells assessed as increase in malondialdehyde level at 5 uM incubated for 48 hrs", "format": "functional, cell-based"}, "[13]": {"assay": "Clearance in ICR(CD-1) mouse at 5 mg/kg, iv treated up to 24 hrs by LC-MS/MS analysis", "format": "ADME, organism-based", "details": "in vivo"}, "[14]": {"assay": "Half life in ICR(CD-1) mouse at 5 mg/kg, iv treated up to 24 hrs by LC-MS/MS analysis", "format": "ADME, organism-based", "details": "in vivo"}, "U-937 [15]": {"tested_on": "U-937", "assay": "Antiproliferative activity against human U-937 cells assessed as suppression of cell growth at 5 uM incubated for 48 hrs in presence of K67 by trypan blue staining based analysis", "format": "functional"}, "[16]": {"assay": "Antitumor activity against mouse MLL-AF9 cells allografted in female C57BL/6 mouse model assessed as GFP positive leukemic cells in peripheral blood at 50 mg/kg, ip administered once daily for 26 days in presence of cytarabine by FITC staining based analysis (reference value: 30.6 %)", "format": "functional", "details": "time 26 day"}, "MLL-AF9 [17]": {"tested_on": "MLL-AF9", "assay": "Antitumor activity against mouse MLL-AF9 cells allografted in female C57BL/6 mouse model assessed as reduction in hepatomegaly at 50 mg/kg, ip administered once daily for 23 days", "format": "functional, organism-based", "details": "time 23.0 day"}, "OCI-AML2 [18]": {"tested_on": "OCI-AML2", "assay": "Induction of ferroptosis in human OCI-AML2 cells assessed as increase in ROS generation at 5 uM incubated for 48 hrs in presence of ferrostatin-1 by DCFH-DA staining based flow cytometry analysis", "format": "functional, cell-based"}, "[19]": {"tested_on": "Acute myeloid leukemic cell", "assay": "Induction of ferroptosis in human Acute myeloid leukemic cells assessed as upregulation of TFRC mRNA level by RT-qPCR analysis", "format": "functional, cell-based"}, "OCI-AML2 [20]": {"tested_on": "OCI-AML2", "assay": "Cytotoxicity against human OCI-AML2 cells assessed as cell growth inhibition at 5 uM incubated for 24 to 48 hrs by cell counting assay", "format": "functional, cell-based", "details": "time 24-48 hrs"}, "U-937 [21]": {"tested_on": "U-937", "assay": "Induction of ferroptosis in human U-937 cells assessed as increase in malondialdehyde level at 5 uM incubated for 48 hrs", "format": "functional, cell-based"}, "[22]": {"tested_on": "Acute myeloid leukemic cell", "assay": "Induction of ferroptosis in human Acute myeloid leukemic cells assessed as upregulation of FTH1 mRNA level by RT-qPCR analysis", "format": "functional, cell-based"}, "U-937 [23]": {"tested_on": "U-937", "assay": "Induction of cell differentiation in human U-937 cells assessed as increase in CD14 expression at 5 uM incubated for 48 hrs by flow cytometry analysis", "format": "functional, cell-based"}, "OCI-AML2 [24]": {"tested_on": "OCI-AML2", "assay": "Induction of ferroptosis in human OCI-AML2 cells assessed as increase in malondialdehyde level at 5 uM incubated for 48 hrs in presence of ferrostatin-1", "format": "functional, cell-based"}, "U-937 [25]": {"tested_on": "U-937", "assay": "Effect on CCNB1 gene expression in human U-937 cells at 10 uM incubated for 48 hrs by RT-qPCR", "format": "functional, cell-based"}, "[26]": {"tested_on": "Acute myeloid leukemic cell", "assay": "Induction of ferroptosis in human Acute myeloid leukemic cells assessed as […] of ACSL4 mRNA level by RT-qPCR analysis", "format": "functional, cell-based"}, "MV4-11": {"tested_on": "MV4-11", "assay": "Antiproliferative activity against human MV4-11 cells assessed as cell growth inhibition incubated for 2 days by CCK-8 assay", "details": "MV4-11, 48 h"}, "[27]": {"assay": "Toxicity in female C57BL/6 mouse model assessed as increase in survival rate at 50 mg/kg, ip administered once daily in presence of cytarabine by Kaplan Mayer survival analysis", "format": "organism-based", "details": "in vivo"}, "OCI-AML2 [28]": {"tested_on": "OCI-AML2", "assay": "Induction of ferroptosis in human OCI-AML2 cells assessed as increase in ferrous ion accumulation at 5 uM incubated for 48 hrs by RhoNox-1 staining based flow cytometry analysis", "format": "functional, cell-based"}, "[29]": {"assay": "Toxicity in female C57BL/6 mouse assessed as drug tolerance at 50 mg/kg, ip administered once daily in presence of cytarabine", "format": "organism-based", "details": "in vivo"}, "[30]": {"assay": "Antitumor activity against mouse MLL-AF9 cells allografted in female C57BL/6 mouse model assessed as GFP positive leukemic cells in peripheral blood at 50 mg/kg, ip administered once daily for 26 days by FITC staining based analysis (reference value: 30.6 %)", "format": "functional", "details": "time 26 day"}, "U-937 [31]": {"tested_on": "U-937", "assay": "Induction of ferroptosis in human U-937 cells assessed as increase in lipid peroxidation at 10 uM in presence of Zinc protoporphyrin by flow cytometry analysis", "format": "functional, cell-based"}, "MLL-AF9 [32]": {"tested_on": "MLL-AF9", "assay": "Antitumor activity against mouse MLL-AF9 cells allografted in female C57BL/6 mouse model assessed as reduction in hepatomegaly at 50 mg/kg, ip administered once daily for 23 days in presence of cytarabine", "format": "functional, organism-based", "details": "time 23.0 day"}, "[33]": {"assay": "AUC (0 to infinity) in ICR(CD-1) mouse at 5 mg/kg, iv treated up to 24 hrs by LC-MS/MS analysis", "format": "ADME, organism-based", "details": "in vivo"}, "[34]": {"tested_on": "Acute myeloid leukemic cell", "assay": "Induction of ferroptosis in human Acute myeloid leukemic cells assessed as upregulation of FTL mRNA level by RT-qPCR analysis", "format": "functional, cell-based"}, "[35]": {"tested_on": "Acute myeloid leukemic cell", "assay": "Induction of ferroptosis in human Acute myeloid leukemic cells assessed as upregulation of GPX4 mRNA level by RT-qPCR analysis", "format": "functional, cell-based"}, "[36]": {"assay": "Toxicity in female C57BL/6 mouse model assessed as change in body weight at 50 mg/kg, ip administered once daily", "format": "organism-based", "details": "in vivo"}, "Histone deacetylase 4": {"molecular_target": "Histone deacetylase 4 (Homo sapiens, UniProt P56524)", "sequence (P56524 whole entry)": "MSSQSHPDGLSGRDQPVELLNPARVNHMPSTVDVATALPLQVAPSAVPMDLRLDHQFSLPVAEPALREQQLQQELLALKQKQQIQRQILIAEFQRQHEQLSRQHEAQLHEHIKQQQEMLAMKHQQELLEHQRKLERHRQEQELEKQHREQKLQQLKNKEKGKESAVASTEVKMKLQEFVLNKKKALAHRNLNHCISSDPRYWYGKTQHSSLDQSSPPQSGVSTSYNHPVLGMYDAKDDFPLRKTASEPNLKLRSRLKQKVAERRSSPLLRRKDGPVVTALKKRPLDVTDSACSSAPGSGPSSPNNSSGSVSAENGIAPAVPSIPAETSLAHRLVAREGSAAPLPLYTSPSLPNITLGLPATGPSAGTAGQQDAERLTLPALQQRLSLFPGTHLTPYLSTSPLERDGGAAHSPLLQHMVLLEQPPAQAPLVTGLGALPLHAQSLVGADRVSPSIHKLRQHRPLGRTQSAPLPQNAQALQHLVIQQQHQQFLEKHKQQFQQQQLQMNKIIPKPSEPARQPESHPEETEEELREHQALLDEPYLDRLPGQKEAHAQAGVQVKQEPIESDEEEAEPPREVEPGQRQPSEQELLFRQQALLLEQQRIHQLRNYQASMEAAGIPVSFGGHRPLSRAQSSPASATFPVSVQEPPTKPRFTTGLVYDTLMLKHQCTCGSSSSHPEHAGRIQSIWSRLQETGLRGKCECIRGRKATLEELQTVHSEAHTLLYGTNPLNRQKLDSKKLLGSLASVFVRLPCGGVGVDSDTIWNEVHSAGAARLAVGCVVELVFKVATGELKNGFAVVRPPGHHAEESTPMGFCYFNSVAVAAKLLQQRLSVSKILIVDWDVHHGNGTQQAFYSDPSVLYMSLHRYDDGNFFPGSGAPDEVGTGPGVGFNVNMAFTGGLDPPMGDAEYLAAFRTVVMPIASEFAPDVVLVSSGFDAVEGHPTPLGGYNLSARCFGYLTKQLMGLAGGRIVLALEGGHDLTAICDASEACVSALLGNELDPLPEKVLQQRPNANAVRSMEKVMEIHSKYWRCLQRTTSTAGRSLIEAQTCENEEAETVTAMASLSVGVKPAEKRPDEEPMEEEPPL", "assay": "Inhibition of N-terminal GST-tagged C-terminal His-tagged human HDAC4 (627 to 1084 end residues) expressed in baculovirus expression system in Sf9 cells using Boc-Lys-(trifluoroacetyl)-AMC as substrate preincubated with enzyme for 1 hr followed by substrate addition and measured after 30 mins by fluorescence analysis"}},
  "note": "Calls of active or inactive are those of the source. The calls are words filed in the database; no cut-off is given here.",
  "data": [
    {"smiles": "O=C(NO)c1cccc2[nH]c(C#Cc3cccc(C(F)(F)F)c3)cc12", "values": [
      {"measurement": "Activity", "setting": "OCI-AML2 [1]", "result": "Dose-dependent-effect"},
      {"measurement": "Activity", "setting": "[2]", "result": "Active"},
      {"measurement": "Activity", "setting": "U-937 [3]", "result": "Active"},
      {"measurement": "Activity", "setting": "U-937 [4]", "result": "Active"},
      {"measurement": "Activity", "setting": "U-937 [5]", "result": "inactive"},
      {"measurement": "IC50 at 2 days", "setting": "[6]", "result": 80, "unit": "µM"},
      {"measurement": "bioavailability", "setting": "[7]", "result": 32, "unit": "%"},
      {"measurement": "Activity", "setting": "OCI-AML2 [8]", "result": "inactive"},
      {"measurement": "Activity", "setting": "U-937 [9]", "result": "inactive"},
      {"measurement": "Activity", "setting": "OCI-AML2 [10]", "result": "Dose-dependent-effect"},
      {"measurement": "Activity", "setting": "OCI-AML2 [11]", "result": "Dose-dependent-effect"},
      {"measurement": "Activity", "setting": "OCI-AML2 [12]", "result": "Active"},
      {"measurement": "clearance", "setting": "[13]", "result": 134, "unit": "mL/min/kg"},
      {"measurement": "half-life", "setting": "[14]", "result": 49.2, "unit": "min"},
      {"measurement": "Activity", "setting": "U-937 [15]", "result": "inactive"},
      {"measurement": "Activity", "setting": "[16]", "result": 1.74, "unit": "%"},
      {"measurement": "Activity", "setting": "MLL-AF9 [17]", "result": "Active"},
      {"measurement": "Activity", "setting": "OCI-AML2 [18]", "result": "inactive"},
      {"measurement": "Activity", "setting": "[19]", "result": "Active"},
      {"measurement": "Activity", "setting": "OCI-AML2 [20]", "result": "Active"},
      {"measurement": "Activity", "setting": "U-937 [21]", "result": "Active"},
      {"measurement": "Activity", "setting": "[22]", "result": "Active"},
      {"measurement": "Activity", "setting": "U-937 [23]", "result": "Active"},
      {"measurement": "Activity", "setting": "OCI-AML2 [24]", "result": "inactive"},
      {"measurement": "Activity", "setting": "U-937 [25]", "result": "Active"},
      {"measurement": "Activity", "setting": "[26]", "result": "Active"},
      {"measurement": "IC50", "setting": "MV4-11", "result": "≤ 10", "unit": "µM"},
      {"measurement": "Activity", "setting": "[27]", "result": "Non-toxic"},
      {"measurement": "Activity", "setting": "OCI-AML2 [28]", "result": "Active"},
      {"measurement": "Activity", "setting": "[29]", "result": "Non-toxic"},
      {"measurement": "Activity", "setting": "[30]", "result": 11.2, "unit": "%"},
      {"measurement": "Activity", "setting": "U-937 [31]", "result": "Active"},
      {"measurement": "Activity", "setting": "MLL-AF9 [32]", "result": "Active"},
      {"measurement": "AUC(0-inf)", "setting": "[33]", "result": 625, "unit": "ng·h/mL"},
      {"measurement": "Activity", "setting": "[34]", "result": "Active"},
      {"measurement": "Activity", "setting": "[35]", "result": "Active"},
      {"measurement": "Activity", "setting": "[36]", "result": "Non-toxic"},
      {"measurement": "IC50", "setting": "Histone deacetylase 4", "result": "> 100", "unit": "µM"}
    ]}
  ]
}
